Test results taken from US20100298141A1, “SUBSTITUTED PYRIDINE N-OXIDE HERBICIDES” (E. I. DU PONT DE NEMOURS AND COMPANY, priority 2007, published 2010).

Columns and labels:
[1] = system: wheat; assay: Test A pre-/postemergence greenhouse test; format: in vivo, Triticum aestivum; details: for Wheat plant response rating: 0 to 100 scale
Summary of the method: (§1)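 Greenhouse herbicide screen, pre- and postemergence in parallel. Soil: loam plus sand. Formulation: non-phytotoxic solvent mix with surfactant. Postemergence stage: one to two leaves, 2–10 cm height. Evaluation: visual injury, compared with untreated controls, about 10 days after treatment.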

[2] = system: yellow nutsedge; assay: Test C pre-/postemergence test; format: in vivo, Cyperus esculentus
Summary of the method: (§2)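 Compounds in a non-phytotoxic solvent with surfactant applied preemergence to seeded pots and, at the same time, postemergence to plants 2–18 cm tall (1- to 4-leaf stage). Paddy tests: pots flooded to 3 cm, compound applied into the water, depth held throughout.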

[3] = system: giant foxtail; assay: Test C pre-/postemergence test; format: in vivo, Setaria faberii
Summary of the method: as §2

[4] = system: wild oat; assay: Test C pre-/postemergence test; format: in vivo, Avena fatua
Summary of the method: as §2

[5] = system: johnsongrass; assay: Test C pre-/postemergence test; format: in vivo, Sorghum halepense
Summary of the method: as §2

[6] = system: downy brome; assay: Test C pre-/postemergence test; format: in vivo, Bromus tectorum
Summary of the method: as §2

[7] = system: redroot pigweed; assay: Test A pre-/postemergence greenhouse test; format: in vivo, Amaranthus retroflexus; details: for Pigweed plant response rating: 0 to 100 scale
Summary of the method: as §1

[8] = system: catchweed bedstraw; assay: Test C pre-/postemergence test; format: in vivo, Galium aparine
Summary of the method: as §2

[9] = system: corn; assay: Test C pre-/postemergence test; format: in vivo, Zea mays
Summary of the method: as §2

[10] = system: duck salad; assay: Test C flooded paddy test; format: in vivo, Heteranthera limosa; details: Flood
Summary of the method: (§3)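 Ratings were visual and made relative to untreated controls after 13 to 15 greenhouse days.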

[11] = system: velvetleaf; assay: Test C pre-/postemergence test; format: in vivo, Abutilon theophrasti; details: for Velvetleaf plant response rating: preemergence, scale 0 (no effect) to 100 (complete control)
Summary of the method: as §2

[12] = system: morningglory; assay: Test C pre-/postemergence test; format: in vivo, Ipomoea coccinea
Summary of the method: as §2

[13] = system: woolly cupgrass; assay: Test C pre-/postemergence test; format: in vivo, Eriochloa villosa
Summary of the method: as §2

[14] = system: eastern black nightshade; assay: Test C pre-/postemergence test; format: in vivo, Solanum ptycanthum
Summary of the method: as §2

[15] = system: wheat; assay: Test C pre-/postemergence test; format: in vivo, Triticum aestivum; details: for Wheat plant response rating: preemergence, scale 0 (no effect) to 100 (complete control)
Summary of the method: as §2

[16] = system: rice; assay: Test C flooded paddy test; format: in vivo, Oryza sativa; details: Flood
Summary of the method: as §3

[17] = system: velvetleaf; assay: Test A pre-/postemergence greenhouse test; format: in vivo, Abutilon theophrasti; details: for Velvetleaf plant response rating: 0 to 100 scale
Summary of the method: as §1

[18] = Postemergence, 125 g ai/ha, 0 is no effect, 100 is complete control
[19] = Postemergence, 500 g ai/ha, 0 is no effect, 100 is complete control
[20] = Preemergence, 125 g ai/ha, 0 no effect, 100 complete control
[21] = Preemergence, 500 g ai/ha, 0 to 100 scale where 0 is no effect and 100 is complete control
[22] = 31 g ai/ha, Preemergence, scale 0 to 100
[23] = 62 g ai/ha, preemergence, scale 0 (no effect) to 100 (complete control)
[24] = preemergence, 125 g ai/ha, scale 0 (no effect) to 100 (complete control)
[25] = 31 g ai/ha, scale 0 to 100 (0 no effect, 100 complete control)
[26] = 62 g ai/ha, scale 0 to 100, 0 no effect, 100 complete control, 13 to 15 days
[27] = 125 g ai/ha, scale 0 to 100, 0 no effect, 100 complete control, 13 to 15 days
[28] = 250 g ai/ha, scale 0 to 100 (0 no effect, 100 complete control)

Cc1cc[n+]([O-])c(S(=O)(=O)C(C)c2c(C(F)(F)F)nn(C)c2Cl)c1 (racemic) [Compound 14]
60: Plant response rating, Wheat [1, 21] | Johnsongrass plant response rating [5, 23] | Corn plant response rating [9, 24] | Plant response rating, Rice [16, 27] | Velvetleaf plant response rating [17, 19] | Plant response rating, Velvetleaf [17, 21]
40: Wheat plant response rating [1, 18] | Wheat plant response rating [1, 20] | Nutsedge, Yellow plant response rating [2, 22] | Plant response rating, Ducksalad [10, 25]
70: Nutsedge, Yellow plant response rating [2, 23] | Plant response rating (0 to 100), Bromegrass, Downy ([6]; Preemergence, 250 g ai/ha) | Bromegrass, Downy plant response rating [6, 24] | Plant response rating, Rice [16, 28]
5: Morningglory plant response rating [12, 22]
35: Bromegrass, Downy plant response rating [6, 23]
80: Plant response rating (0 to 100), Corn ([9]; Preemergence, 250 g ai/ha) | Plant response rating, Ducksalad [10, 27] | Nightshade plant response rating [14, 22] | Plant response rating (0 to 100), Wheat ([15]; Preemergence, 250 g ai/ha)
75: Plant response rating (0 to 100), Oat, Wild ([4]; Preemergence, 250 g ai/ha)
45: Johnsongrass plant response rating [5, 22]
10: Oat, Wild plant response rating [4, 24] | Pigweed plant response rating [7, 19] | Velvetleaf plant response rating ([11]; 62 g ai/ha)
0: Oat, Wild plant response rating [4, 22] | Oat, Wild plant response rating [4, 23] | Pigweed plant response rating [7, 18] | Galium plant response rating [8, 22] | Corn plant response rating [9, 22] | Plant response rating, Rice [16, 25] | Plant response rating, Rice [16, 26] | Velvetleaf plant response rating [17, 18] | Velvetleaf plant response rating [17, 20]
50: Wheat plant response rating [1, 19] | Plant response rating, Ducksalad [10, 26] | Wheat plant response rating ([15]; 125 g ai/ha)
85: Foxtail, Giant plant response rating [3, 22] | Foxtail, Giant plant response rating [3, 23] | Cupgrass, Woolly plant response rating [13, 22] | Cupgrass, Woolly plant response rating [13, 23]
20: Corn plant response rating [9, 23] | Wheat plant response rating ([15]; 62 g ai/ha)
98: Nutsedge, Yellow plant response rating [2, 24] | Morningglory plant response rating [12, 23]
30: Bromegrass, Downy plant response rating [6, 22]
100: Plant response rating (0 to 100), Nutsedge, Yellow ([2]; Preemergence, 250 g ai/ha) | Plant response rating (0 to 100), Foxtail, Giant ([3]; Preemergence, 250 g ai/ha) | Foxtail, Giant plant response rating [3, 24] | Plant response rating (0 to 100), Johnsongrass ([5]; Preemergence, 250 g ai/ha) | Johnsongrass plant response rating [5, 24] | Pigweed plant response rating [7, 20] | Plant response rating, Pigweed [7, 21] | Galium plant response rating [8, 23] | Plant response rating (0 to 100), Galium ([8]; Preemergence, 250 g ai/ha) | Galium plant response rating [8, 24] | Plant response rating, Ducksalad [10, 28] | Plant response rating (0 to 100), Velvetleaf ([11]; Preemergence, 250 g ai/ha) | Velvetleaf plant response rating ([11]; 125 g ai/ha) | Plant response rating (0 to 100), Morningglory ([12]; Preemergence, 250 g ai/ha) | Morningglory plant response rating [12, 24] | Plant response rating (0 to 100), Cupgrass, Woolly ([13]; Preemergence, 250 g ai/ha) | Nightshade plant response rating [14, 23] | Plant response rating (0 to 100), Nightshade ([14]; Preemergence, 250 g ai/ha) | Nightshade plant response rating [14, 24]
90: Cupgrass, Woolly plant response rating [13, 24]
